Results as given in US20220289746A1, “PYRROLIDINE DERIVATIVES” (Hoffmann-La Roche Inc., priority 2019, published 2022).

Tests used:
human M4 receptor [1] = biological target: T1, human M4 receptor (Homo sapiens, UniProt P08173); test: Calcium flux assay using fluorescent imaging (M4 PAM FLIPR assay); assay type: cell-based; design: expressed in transfected cells; host or cells: CHO (monoclonal line, clone 2); settings: Table 1; CHO cells expressing human M4+Gqi5; acetylcholine EC20
T1 sequence (P08173 1-479): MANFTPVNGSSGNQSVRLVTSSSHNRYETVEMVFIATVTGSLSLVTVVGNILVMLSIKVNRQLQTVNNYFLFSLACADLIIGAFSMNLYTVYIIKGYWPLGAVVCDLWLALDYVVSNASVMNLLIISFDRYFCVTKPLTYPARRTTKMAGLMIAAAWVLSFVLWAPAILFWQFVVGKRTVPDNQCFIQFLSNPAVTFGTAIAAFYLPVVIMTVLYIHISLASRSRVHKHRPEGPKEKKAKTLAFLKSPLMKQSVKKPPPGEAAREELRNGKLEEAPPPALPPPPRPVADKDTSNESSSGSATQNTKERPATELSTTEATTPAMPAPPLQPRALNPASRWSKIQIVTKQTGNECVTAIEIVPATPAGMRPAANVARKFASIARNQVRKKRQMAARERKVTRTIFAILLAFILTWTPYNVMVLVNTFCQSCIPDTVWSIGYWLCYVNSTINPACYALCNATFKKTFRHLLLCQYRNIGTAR
Procedure: CHO cells were transfected with expression plasmid encoding the human M4 receptor and a Gqi5 construct to redirect Gi signaling to calcium. Stable cells were cloned by limiting dilution to yield a monoclonal cell line expressing human M4+Gqi5 (clone 2). The stable cells were grown in DMEM containing 10% FBS, 200 ug/ml Geneticin and 800 ug/ml Hygromycin at 37° C. in a 10% CO2 incubator at 95% humidity.
Calcium Flux Assay Using Fluorescent Imaging (“M4 PAM FLIPR” Assay)
On the afternoon before the assay, cells were plated at a density of 50,000 cells/well into black 96 well plates with clear bottoms to yield a confluent monolayer the next day. Hanks balanced salt solution, without phenol red, containing 20 mM HEPES (pH 7.3) and 2.5 mM probenecid (assay buffer) was prepared fresh for each experiment. Compound dilutions were made using a Beckman Biomek 2000 laboratory automation workstation, in assay buffer. The dye-loading buffer consisted of a final concentration of 2 μM Fluo-4-AM (dissolved in DMSO and pluronic acid) and 65 μg/ml amidoblack in assay buffer. The existing culture media was removed from the wells and 100 μl of the dye-loading buffer was added to each well and incubated for approximately 90 min at 37° C. in a 5% CO2 incubator at 95% humidity.
Calcium flux in the dye-loaded cells was measured with the fluorescence reader Hamamatsu FDSS 7000. To test compounds as agonists, compound addition (25 μl) was made 10 s into the fluorescent measurements and fluorescent response was recorded for 3 minutes. The fluorescence data was expressed as percentage of the fluorescence obtained by an EC100 concentration (3 μM) of the endogenous full agonist acetylcholine. Each test compound concentration-response curve was constructed using a four parameter logistic equation in Microsoft Excel XLFit as follows:
Y=Minimum+((Maximum−Minimum)/(1+10^(LogEC50−X)nH)).
The concentration of agonist that produced a half-maximal response is represented by the EC50 value. Maximum and minimum are the maximum and minimum fluorescence signal in % respectively. nH is the Hill slope.
To measure positive allosteric modulator activity 25 μl of an EC20 concentration of the endogenous agonist acetylcholine is added to the cells already pre-incubated with the test compound for 15 minutes.
The M4 PAM dose response is constructed using the agonist dose-response equation above. The concentration of PAM that produced a half-maximal response is represented by the EC50 value and the maximum signal measured is the PAM efficacy expressed in % of the EC100 (3 μM) acetylcholine response. • cAMP Assay for M4 Positive Allosteric Modulators (“M4 PAM cAMP” Assay)

human M4 receptor [2] = biological target: T1, human M4 receptor; test: cAMP assay for M4 positive allosteric modulators (M4 PAM cAMP assay); assay type: cell-based; design: expressed in transfected cells; host or cells: CHO-K1; settings: Table 1; CHO-K1 cells expressing human M4; forskolin 7.5 μM + acetylcholine EC20 (0.2 nM)
Procedure: The potency of M4 PAMs was determined using a cell-based cyclic adenosine monophosphate assay. The assay was performed with CHO-Kl cells stably expressing untagged human M4 receptor and cAMP was quantified using the Nano-TRF Detection Assay kit (Roche, Cat. No. 05214386) as described in the kit instructions. The cells were grown in Ham's F-12 Nutrient mix supplemented with 10% FBS and 200 μg/ml geneticin until they reached 80% confluency. The cells were washed with PBS, detached with accutase and resuspended in assay buffer consisting of HBSS and 0.1% BSA. They were then seeded in black 384-well plates (Corning, Cat. No. 3764) at a density of 20,000 cells/20 μl per well until the addition of compounds.
Test compounds were serially diluted 1:2 in 100% DMSO and spotted in 384-well plates at 0.5 μl/well. The compounds were then diluted in water containing IBMX (Sigma, Cat. No. 17018) and a sample (5 μl) was added to the cells for 15 minutes at 37° C./5% CO2. After this incubation the cells were stimulated with a combination of forskolin (7.5 μM) and acetylcholine EC20 (0.2 nM) in assay buffer for 30 minutes at 37° C./5% CO2. The assay was stopped by adding cAMP detection mix (15 μl/well, containing detergents for cell lysis) for one hour at RT.
The test plates were read using a SpectraMax i3x reader (Molecular Devices). The exported raw data was used to calculate the FRET signal based on the P-factor as per cAMP kit instructions. The data was normalized to the activity of acetylcholine plus forskolin, with 2 nM of acetylcholine plus 7.5 μM forskolin defined as 100% activity. Dose response curves were fitted to the percent activity data of the compounds using a sigmoidal dose response model (XLfit, IDBS) and the data were reported as EC50 and percent efficacy.

| Structure (SMILES) | EC50 (human M4 receptor [1]) [nM] | EC50 (human M4 receptor [2]) [nM] |
| --- | --- | --- |
| Cc1nc2c(c(C)c1Cl)CN(C(=O)[C@@H]1CCN(c3ccncc3)C1)C2 [Example 3, (3-chloro-2,4-dimethyl-5,7-dihydropyrrolo[3,4-b]pyridin-6-yl)-[(3R)-1-(4-pyridyl)pyrrolidin-3-yl]methanone] | 489 | 769 |
| Cc1nc2c(c(C)c1Cl)CN(C(=O)[C@@H]1CCN(c3ccnc(C4CC4)n3)C1)C2 [Example 6, (3-chloro-2,4-dimethyl-5,7-dihydropyrrolo[3,4-b]pyridin-6-yl)-[(3R)-1-(2-cyclopropylpyrimidin-4-yl)pyrrolidin-3-yl]methanone] | 931 | 3780 |
| Cc1nc2c(c(C)c1Cl)CN(C(=O)[C@@H]1CCN(c3ccc(C(F)(F)F)nc3)C1)C2 [Example 9, (3-chloro-2,4-dimethyl-5,7-dihydropyrrolo[3,4-b]pyridin-6-yl)-[(3R)-1-[6-(trifluoromethyl)-3-pyridyl]pyrrolidin-3-yl]methanone] | 1360 | 1070 |
| Cc1nc2c(c(C)c1Cl)CN(C(=O)[C@@H]1CCN(c3cncc(C(F)(F)F)c3)C1)C2 [Example 14, (3-chloro-2,4-dimethyl-5,7-dihydropyrrolo[3,4-b]pyridin-6-yl)-[(3R)-1-[5-(trifluoromethyl)-3-pyridyl]pyrrolidin-3-yl]methanone] | 3520 | 2180 |
| Cc1nc2c(c(C)c1Cl)CN(C(=O)[C@@H]1CCN(c3cncc(C4CC4)c3)C1)C2 [Example 16, (3-chloro-2,4-dimethyl-5,7-dihydropyrrolo[3,4-b]pyridin-6-yl)-[(3R)-1-(5-cyclopropyl-3-pyridyl)pyrrolidin-3-yl]methanone] | 816 | 3640 |
| Cc1nc2c(c(C)c1Cl)CN(C(=O)[C@@H]1CCN(c3cncc(OC(F)F)c3)C1)C2 [Example 17, (3-chloro-2,4-dimethyl-5,7-dihydropyrrolo[3,4-b]pyridin-6-yl)-[(3R)-1-[5-(difluoromethoxy)-3-pyridyl]pyrrolidin-3-yl]methanone] | 240 | 230 |
| Cc1nc2c(c(C)c1Cl)CN(C(=O)[C@@H]1CCN(c3ccnc(C(F)F)c3)C1)C2 [Example 20, (3-chloro-2,4-dimethyl-5,7-dihydropyrrolo[3,4-b]pyridin-6-yl)-[(3R)-1-[2-(difluoromethyl)-4-pyridyl]pyrrolidin-3-yl]methanone] | 181 | 80 |

Further lines, results first:

| EC50 (human M4 receptor [1]) [nM] | EC50 (human M4 receptor [2]) [nM] | Structure (SMILES) |
| --- | --- | --- |
| 547 | 690 | Cc1ccc(N2CC[C@@H](C(=O)N3Cc4nc(C)c(Cl)c(C)c4C3)C2)cn1 [Example 4, (3-chloro-2,4-dimethyl-5,7-dihydropyrrolo[3,4-b]pyridin-6-yl)-[(3R)-1-(6-methyl-3-pyridyl)pyrrolidin-3-yl]methanone] |
| 490 | 616 | Cc1cc(N2CC[C@@H](C(=O)N3Cc4nc(C)c(Cl)c(C)c4C3)C2)ccn1 [Example 5, (3-chloro-2,4-dimethyl-5,7-dihydropyrrolo[3,4-b]pyridin-6-yl)-[(3R)-1-(2-methyl-4-pyridyl)pyrrolidin-3-yl]methanone] |
| 1010 | 2080 | Cc1nc2c(c(C)c1Cl)CN(C(=O)[C@@H]1CCN(c3ncc(C(F)(F)F)cn3)C1)C2 [Example 7, (3-chloro-2,4-dimethyl-5,7-dihydropyrrolo[3,4-b]pyridin-6-yl)-[(3R)-1-[5-(trifluoromethyl)pyrimidin-2-yl]pyrrolidin-3-yl]methanone] |
| 2350 | 5270 | Cc1cnc(N2CC[C@@H](C(=O)N3Cc4nc(C)c(Cl)c(C)c4C3)C2)nc1 [Example 8, (3-chloro-2,4-dimethyl-5,7-dihydropyrrolo[3,4-b]pyridin-6-yl)-[(3R)-1-(5-methylpyrimidin-2-yl)pyrrolidin-3-yl]methanone] |
| 1030 | 1010 | COc1ccc(N2CC[C@@H](C(=O)N3Cc4nc(C)c(Cl)c(C)c4C3)C2)cn1 [Example 10, (3-chloro-2,4-dimethyl-5,7-dihydropyrrolo[3,4-b]pyridin-6-yl)-[(3R)-1-(6-methoxy-3-pyridyl)pyrrolidin-3-yl]methanone] |
| 1360 | 446 | CNc1ccc(N2CC[C@@H](C(=O)N3Cc4nc(C)c(Cl)c(C)c4C3)C2)cn1 [Example 11, (3-chloro-2,4-dimethyl-5,7-dihydropyrrolo[3,4-b]pyridin-6-yl)-[(3R)-1-[6-(methylamino)-3-pyridyl]pyrrolidin-3-yl]methanone] |
| 1300 | 1260 | Cc1ncccc1N1CC[C@@H](C(=O)N2Cc3nc(C)c(Cl)c(C)c3C2)C1 [Example 12, (3-chloro-2,4-dimethyl-5,7-dihydropyrrolo[3,4-b]pyridin-6-yl)-[(3R)-1-(2-methyl-3-pyridyl)pyrrolidin-3-yl]methanone] |
| 528 | 674 | Cc1ccncc1N1CC[C@@H](C(=O)N2Cc3nc(C)c(Cl)c(C)c3C2)C1 [Example 13, (3-chloro-2,4-dimethyl-5,7-dihydropyrrolo[3,4-b]pyridin-6-yl)-[(3R)-1-(4-methyl-3-pyridyl)pyrrolidin-3-yl]methanone] |
| 306 | 346 | Cc1nc2c(c(C)c1Cl)CN(C(=O)[C@@H]1CCN(c3cncc(C(F)F)c3)C1)C2 [Example 15, (3-chloro-2,4-dimethyl-5,7-dihydropyrrolo[3,4-b]pyridin-6-yl)-[(3R)-1-[5-(difluoromethyl)-3-pyridyl]pyrrolidin-3-yl]methanone] |
| 549 | 166 | COc1cncc(N2CC[C@@H](C(=O)N3Cc4nc(C)c(Cl)c(C)c4C3)C2)c1 [Example 18, (3-chloro-2,4-dimethyl-5,7-dihydropyrrolo[3,4-b]pyridin-6-yl)-[(3R)-1-(5-methoxy-3-pyridyl)pyrrolidin-3-yl]methanone] |
| 442 | 379 | Cc1nc2c(c(C)c1Cl)CN(C(=O)[C@@H]1CCN(c3cncc(S(C)(=O)=O)c3)C1)C2 [Example 19, (3-chloro-2,4-dimethyl-5,7-dihydropyrrolo[3,4-b]pyridin-6-yl)-[(3R)-1-(5-methylsulfonyl-3-pyridyl)pyrrolidin-3-yl]methanone] |
